Data: publication PMC5007466, “VCP recruitment to mitochondria causes mitophagy impairment and neurodegeneration in models of Huntington's disease” (Nature Communications, 2016)

Legend:
[1] = system: HdhQ111 / HdhQ7 mouse striatal cells; assay: LDH release (cell death) after serum withdrawal; format: cell-based
Procedure: HdhQ7 and Q111 mouse striatal cells were treated with the HV-3 peptide or the control peptide TAT (3 μM, each) in an FBS-free DMEM medium or in DMEM containing 10% serum for 24 h. Medium from the cultured cells was harvested. Proteins from the medium were purified using Amicon Ultra 0.5 ml centrifugal filters (Millipore). HMGB1 release into the medium was then analysed by Western blotting with anti-HMGB1 antibody. In parallel, cell death was determined by measuring LDH release into the culture medium, using LDH-Cytotoxicity Assay Kit II (Roche, USA) by following the manufacturer's instruction.

[2] = system: HD patient-iPS cell derived neurons; assay: Mitochondrial membrane potential (TMRM), iPS neurons; format: cell-based, human; conditions: 1 μM per day for 5 days
Procedure: iPS cells from a normal subject and a HD patient (carrying 41 CAG repeats) were differentiated into neurons using the protocol from our previous studies. Briefly, iPS cells were plated onto 6-well plates precoated with 2.5% Matrigel and allowed to reach 90% confluence in feeder-free medium. For the first 10 days, cells were treated with SB431542 (10 μM; Tocris Bioscience) and Noggin (100 ng/ml) in Neural Media (NM) containing Neurobasal and DMEM (1:1), B27 supplement minus vitamin A (50 × , Invitrogen), N2 supplement (100 × , Invitrogen), GlutaMax (Invitrogen, 100 × ), FGF2 ([…]) and EGF ([…]), 100 units per ml penicillin and 100 μg ml^−1 streptomycin). […]
To determine mitochondrial mass in cultures, cells were stained with antibodies against Tom20 or stained with Mitotracker green. The fluorescent density of Tom20 (1:500) or mitotracker green was quantitated using NIH Image J software. […] The images were visualized by microscope and quantitation of the density of red fluorescence was carried out using NIH ImageJ software. For immunocytochemistry study, at least 100 cells per group were counted and quantitated by an observer blind to experimental conditions.

HdhQ7 striatal cells = assay: Total GFP-LC3B protein level; format: cell-based, mouse; conditions: Flag-VCP + GFP-LC3B, 36 h
Procedure: Protein concentrations were determined by Bradford assay. Protein was resuspended in Laemmli buffer, loaded on SDS–PAGE, and transferred onto nitrocellulose membranes. Membranes were probed with the indicated antibodies, followed by visualization with ECL. Representative blots have been cropped for presentation. Images of full-size blots are presented in Supplementary Fig. 9. […]
mouse striatal cells were treated with thapsigargin (1μM) or tunicamycin (10μ g/ml) for 16 hours i n the presence or absence of HV -3 (3 µM). GRP78 total protein levels were determined by western blot analysis. Representative blots of three independent experiments are shown. Actin was used here as a loading control. (b) Tw e n t y -four hours of serum starvation was performed in HD mouse striatal cells.
Caspase-3 activity analysis was performed in the indicated groups. Data are mean ± SEM of three independent experiments. (c) Flag-VCP and GFP-LC3B were co-transfected into HdhQ7 striatal cells.
Total lysates were isolated after 36 hours of transfection. The GFP -LC3B levels were examined by western blot analysis. Actin was used as a loading control. Histogram: quantitation of GFP-LC3B total protein level. Data are mean ± SEM of three independent experiments.
(1 picture or pasted object on this page, not shown here)

Structure (SMILES): CSCC[C@H](NC(=O)[C@@H](NC(=O)[C@H](CC(C)C)NC(=O)[C@@H](NC(=O)[C@H](Cc1c[nH]cn1)NC(=O)CCCCCNC(=O)[C@H](CCCNC(=N)N)NC(=O)[C@H](CCCNC(=N)N)NC(=O)[C@H](CCCNC(=N)N)NC(=O)[C@H](CCC(N)=O)NC(=O)[C@H](CCCNC(=N)N)NC(=O)[C@H](CCCNC(=N)N)NC(=O)[C@H](CCCCN)NC(=O)[C@H](CCCCN)NC(=O)[C@H](CCCNC(=N)N)NC(=O)CNC(=O)[C@@H](N)Cc1ccc(O)cc1)C(C)C)C(C)C)C(=O)N[C@@H](CS)C(=O)N[C@@H](C)C(=O)N[C@H](C(N)=O)[C@@H](C)O [HV-3]
- LDH release ([1]; HdhQ111 cells, 24 h serum withdrawal, 3 μM): reduced the release of high mobility group box 1 (HMGB1) and lactate dehydrogenase (LDH)
- cell survival rate, wt ([1]; wt counterparts of the HD models): only minor effects
- mitochondrial membrane potential [2]: improved MMP
- total GFP-LC3B protein level (HdhQ7 striatal cells): no effect on the total protein level of GFP-LC3B
